In patent publication US11358969B2, “Indole AHR inhibitors and uses thereof” (Ikena Oncology, Inc., priority 2017, dated 2022):
Values joined by “and” are separate entries in the source; they are usually repeats but may differ in a detail not shown here. Identical values can stand only once.

How the values were obtained:
AHR = biological target: T1, AHR (UniProt P35869); experiment: DRE-Luciferase Reporter Assay (Alternate Method) (Example 1B); assay type: cell-based, murine or human; conditions: cell line and AHR activating ligand not specified
T1 construct: IC50
T1 sequence (P35869 1-848): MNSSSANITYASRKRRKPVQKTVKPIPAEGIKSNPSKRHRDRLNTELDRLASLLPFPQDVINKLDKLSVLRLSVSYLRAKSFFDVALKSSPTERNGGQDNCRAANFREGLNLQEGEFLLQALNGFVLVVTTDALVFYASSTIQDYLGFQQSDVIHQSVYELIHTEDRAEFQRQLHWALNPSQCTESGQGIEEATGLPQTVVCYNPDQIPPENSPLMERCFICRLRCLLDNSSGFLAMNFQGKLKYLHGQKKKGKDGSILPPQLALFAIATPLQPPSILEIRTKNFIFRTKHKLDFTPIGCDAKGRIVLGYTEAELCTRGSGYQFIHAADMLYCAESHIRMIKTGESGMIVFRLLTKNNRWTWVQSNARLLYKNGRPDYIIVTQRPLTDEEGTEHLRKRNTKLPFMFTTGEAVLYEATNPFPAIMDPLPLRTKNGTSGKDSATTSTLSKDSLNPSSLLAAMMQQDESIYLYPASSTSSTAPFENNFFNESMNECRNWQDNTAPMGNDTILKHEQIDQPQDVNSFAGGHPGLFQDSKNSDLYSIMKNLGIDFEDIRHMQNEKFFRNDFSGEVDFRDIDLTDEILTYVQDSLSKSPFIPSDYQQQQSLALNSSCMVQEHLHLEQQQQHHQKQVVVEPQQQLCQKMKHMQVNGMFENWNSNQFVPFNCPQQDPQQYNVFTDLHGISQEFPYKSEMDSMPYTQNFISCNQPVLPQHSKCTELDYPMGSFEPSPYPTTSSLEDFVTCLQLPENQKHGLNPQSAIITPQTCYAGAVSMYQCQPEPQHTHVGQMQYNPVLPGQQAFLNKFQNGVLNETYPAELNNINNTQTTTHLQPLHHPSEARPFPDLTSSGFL

[1] = In Vitro Mouse liver S9 Metabolic Stability Assay (Example 1D); assay type: in vitro ADME; conditions: CD-1 mouse liver S9, 1 μM compound, 1 mg/mL S9 protein, 37° C., NADPH regenerating system, UDPGA, PAPS
Protocol: CD-1 mouse liver S9 were purchased from Corning or XenoTech LLC or BioreclamationIVT, LLC or WuXi prepared. The cells were stored at −80° C. in a freezer before use. β-Nicotinamide adenine dinucleotide phosphate (NADP), Glucose 6-phosphate (G6P), Glucose 6-phosphate dehydrogenase from yeast (G6PDH), Uridine 5′-diphophoglucuronic acid trisodium salt (UDPGA) and Adenosine 3′-phosphate 5′-phosphosulfate lithium salt hydrate (PAPS) were available commercially from Sigma.
Compounds were diluted in DMSO to make 10 mM stock solution. 5 μL of this stock solution (10 mM, DMSO) was diluted with 45 μL DMSO and 450 μL 50% Methanol/Water to make intermediate stock solution (100 μM, 45% MeOH, 10% DMSO). 50 μL of intermediate stock solution was diluted with 450 μL 100 mM phosphate buffer to make a final stock solution (10 μM, 4.5% MeOH, 1% DMSO). 10 uL of final stock solution was added to 90 uL liver S9 system (final concentration of 1 μM, 0.45% MeOH, 0.1% DMSO).
Test compounds were incubated at 37° C. with liver S9 (pooled from multiple donors) at 1 μM in the presence of a NADPH regenerating system, UDPGA, and PAPS at 1 mg/mL S9 protein. Time samples (0 and 60 minutes) were removed and immediately mixed with cold acetonitrile containing internal standard (IS). Samples were analyzed by LC/MS/MS and disappearance of test compounds were assessed based on peak area ratios of analyte /IS (no standard curve). All samples were injected and analyzed using LC-MS/MS. The analyte/internal standard peak area ratios were converted to percentage remaining (% Remaining) with the following equation: % Remaining at 60 min=(Peak area ratio of analyte to IS at 60 min/Peak area ratio of analyte to IS at t=0)×100%. Table 5. Mouse Stability Data According to Example 1D.

SMILES | IC50 (AHR) [nM] | Mouse S9 Stability: % Remaining After 60 Minutes [1]
Cc1cnn2c(NCCc3cc[nH]c3)cc(-c3cncc(F)c3)nc12 [I-196, 5-(5-Fluoro-3-pyridyl)-3-methyl-N-[2-(1H-pyrrol-3-yl)ethyl]pyrazolo[1,5-a]pyrimidin-7-amine] | < 500 | 0%
Fc1cncc(-c2nc(N[C@@H]3CCc4[nH]c5ccccc5c4C3)cc(N3CCCC3)n2)c1 [I-36, (3R)—N-[2-(5-Fluoro-3-pyridyl)-6-pyrrolidin-1-yl-pyrimidin-4-yl]-2,3,4,9-tetrahydro-1H-carbazol-3-amine] | > 1500 | 29%
Cc1[nH]c2c(F)cccc2c1CCNc1nc(-c2cncc(F)c2)nc2ccnn12 [I-200, N-[2-(7-fluoro-2-methyl-1H-indol-3-yl)ethyl]-2-(5-fluoro-3-pyridyl)pyrazolo[1,5-a][1,3,5]triazin-4-amine] | < 500 | 0%
CC(C)c1cnc2c(N[C@@H]3CCc4[nH]c5ccccc5c4C3)nc(-c3cncc(F)c3)cn12 [I-30, (3R)—N-[6-(5-Fluoro-3-pyridyl)-3-isopropyl-imidazo[1,2-a]pyrazin-8-yl]-2,3,4,9-tetrahydro-1H-carbazol-3-amine] | < 500 | 11%
Cc1cnn2c(NCCc3c[nH]c4ccccc34)nc(-c3cncc(F)c3)nc12 [I-164, 2-(5-Fluoro-3-pyridyl)-N-[2-(1H-indol-3-yl)ethyl]-8-methyl-pyrazolo[1,5-a][1,3,5]triazin-4-amine] | < 500 | 0%
Cc1[nH]c2c(F)cccc2c1CCNc1nc(-c2cncc(F)c2)nc2c(C)cnn12 [I-202, N-[2-(7-Fluoro-2-methyl-1H-indol-3-yl)ethyl]-2-(5-fluoro-3-pyridyl)-8-methyl-pyrazolo[1,5-a][1,3,5]triazin-4-amine] | < 500 | 0%
CC(C)c1cnn2c(NCCc3cc[nH]c3)nc(-c3cncc(F)c3)nc12 [I-166, 2-(5-Fluoro-3-pyridyl)-8-isopropyl-N-[2-(1H-pyrrol-3-yl)ethyl]pyrazolo[1,5-a][1,3,5]triazin-4-amine] | < 500 | 4%
Cc1[nH]c2c(F)cccc2c1CCNc1cc(-c2cncc(F)c2)nc2c(C(F)(F)F)cnn12 [I-235, N-[2-(7-Fluoro-2-methyl-1H-indol-3-yl)ethyl]-5-(5-fluoro-3-pyridyl)-3-(trifluoromethyl)pyrazolo[1,5-a]pyrimidin-7-amine] | < 500 | 2%
CC(C)c1cnn2c(NCCc3c[nH]c4ccccc34)cc(-c3ccccc3)nc12 [I-45, N-[2-(1H-indol-3-yl)ethyl]-3-isopropyl-5-phenyl-pyrazolo[1,5-a]pyrimidin-7-amine] | < 500 | 19%
CC(C)c1cnn2c(NC3Cc4ccc(O)cc4C3)cc(-c3cncc(F)c3)nc12 (stereo not shown) [I-109, 2-[[5-(5-Fluoro-3-pyridyl)-3-isopropyl-pyrazolo[1,5-a]pyrimidin-7-yl]amino]indan-5-ol] | < 500 | 10%
Fc1cncc(-c2cc(NCCc3c[nH]c4cccnc34)n3nccc3n2)c1 [I-208, 5-(5-Fluoro-3-pyridyl)-N-[2-(1H-pyrrolo[3,2-b]pyridin-3-yl)ethyl]pyrazolo[1,5-a]pyrimidin-7-amine] | > 1500 | 0%
CN1CCN(C(=O)c2cnn3c(NCCc4c[nH]c5ccccc45)cc(-c4cncc(F)c4)nc23)CC1 [I-68, [5-(5-Fluoro-3-pyridyl)-7-[2-(1H-indol-3-yl)ethylamino]pyrazolo[1,5-a]pyrimidin-3-yl]-(4-methylpiperazin-1-yl)methanone] | 500 to 1000 | 4%
Cc1[nH]c2c(F)cccc2c1CCNc1cc(-c2cncc(F)c2)nc2ccnn12 [I-214, N-[2-(7-Fluoro-2-methyl-1H-indol-3-yl)ethyl]-5-(5-fluoro-3-pyridyl)pyrazolo[1,5-a]pyrimidin-7-amine] | < 500 | 0%
CC(C)c1cnn2c(NCCc3c[nH]c4ccccc34)cc(-c3cncc(C#N)c3)nc12 [I-81, 5-[7-[2-(1H-indol-3-yl)ethylamino]-3-isopropyl-pyrazolo[1,5-a]pyrimidin-5-yl]pyridine-3-carbonitrile] | < 500 | 2%
CC(C)n1cnc2c(N[C@@H]3CCc4[nH]c5ccccc5c4C3)nc(-c3cncc(F)c3)nc21 [I-162, (3R)—N-[2-(5-Fluoro-3-pyridyl)-9-isopropyl-purin-6-yl]-2,3,4,9-tetrahydro-1H-carbazol-3-amine] | < 500 | 54%
CC(C)c1cnc2c(NCCc3c[nH]c4ccccc34)nc(-c3cncc(F)c3)cn12 [I-106, 6-(5-Fluoro-3-pyridyl)-N-[2-(1H-indol-3-yl)ethyl]-3-isopropyl-imidazo[1,2-a]pyrazin-8-amine] | < 500 | 1%
Cc1cnn2c(NCCc3c[nH]c4cccnc34)cc(-c3cncc(F)c3)nc12 [I-209, 5-(5-Fluoro-3-pyridyl)-3-methyl-N-[2-(1H-pyrrolo[3,2-b]pyridin-3-yl)ethyl]pyrazolo[1,5-a]pyrimidin-7-amine] | 500 to 1000 | 0%
CC(C)c1cnn2c(NCCc3c[nH]c4c(F)cc(F)cc34)nc(-c3cncc(F)c3)nc12 [I-96, N-[2-(5,7-Difluoro-1H-indol-3-yl)ethyl]-2-(5-fluoro-3-pyridyl)-8-isopropyl-pyrazolo[1,5-a][1,3,5]triazin-4-amine] | < 500 | 36%
Fc1cncc(-c2nc(N[C@@H]3CCc4[nH]c5ccccc5c4C3)n3nccc3n2)c1 [I-165, (3R)—N-[2-(5-Fluoro-3-pyridyl)pyrazolo[1,5-a][1,3,5]triazin-4-yl]-2,3,4,9-tetrahydro-1H-carbazol-3-amine] | < 500 | 3%
Cc1[nH]c2c(F)cccc2c1CCNc1cc(-c2cncc(F)c2)nc2c(C)cnn12 [I-224, N-[2-(7-fluoro-2-methyl-1H-indol-3-yl)ethyl]-5-(5-fluoro-3-pyridyl)-3-methyl-pyrazolo[1,5-a]pyrimidin-7-amine] | < 500 | 0%
CN1CCN(c2cc(NCCc3c[nH]c4ccccc34)nc(-c3cncc(F)c3)n2)CC1 [I-67, 2-(5-Fluoro-3-pyridyl)-N-[2-(1H-indol-3-yl)ethyl]-6-(4-methylpiperazin-1-yl)pyrimidin-4-amine] | < 500 | 5% and 1%
CC(C)c1cnn2c(N[C@H](C)Cc3c[nH]c4ccccc34)cc(-c3cncc(F)c3)nc12 [I-98b] | – | 0%
